Test: Compatibility test of silodosin with polymer-based materials
Type: physicochemical
Settings: silodosin:material 1:1 by mass, 40° C., 75% relative humidity, 4 weeks, visual examination
Description: Silodosin and a variety of polymer-based materials were mixed in the mass ratio of 1:1. The mixtures were stored at 40° C. under 75% relative humidity for 4 weeks, and the changes on blending, i.e. incompatibility, were checked. Degradation products were quantified by a liquid chromatography method and a degree of discoloration was checked by visual examination.
Samples equivalent to 20 mg of silodosin were weighed, and test solutions were prepared and analyzed by the liquid chromatography method. Each peak area was measured by an automatic integration method and a content rate of degradation product (KMD-3241) (%) was calculated by an area percentage method.
Detector: Ultraviolet Absorption Photometer (Wavelength: 225 nm)

Color change (fading): −
Structure (SMILES): C[C@H](Cc1cc2c(c(C(N)=O)c1)N(CCCO)CC2)NCCOc1ccccc1OCC(F)(F)F [Silodosin (reference), Silodosin]

— US20160045446A1, “ORAL ADMINISTRATION PREPARATION WITH MASKED BITTERNESS OF SILODOSIN” (KISSEI PHARMACEUTICAL CO., LTD., priority 2013, published 2016)
